Results from patent US9108983B2, “Pyrrole compounds, a process for their preparation and pharmaceutical compositions containing them” (LES LABORATOIRES SERVIER, priority 2013, dated 2015).
Where a name gives a salt, the structure may show the parent alone. Read-outs that look alike come from different tables or passages of the source.

How the values were obtained:
Bcl-2 protein = Bcl-2 protein (histag-Bcl-2, UniProtKB P10415) (Homo sapiens (Human), UniProt P10415); experiment: Inhibition of Bcl-2 by the fluorescence polarisation technique; assay type: binding; settings: incubation for 2 hours, read-out: IC50 (nM) Bcl-2 FP
Chain of Bcl-2 protein (P10415 whole entry): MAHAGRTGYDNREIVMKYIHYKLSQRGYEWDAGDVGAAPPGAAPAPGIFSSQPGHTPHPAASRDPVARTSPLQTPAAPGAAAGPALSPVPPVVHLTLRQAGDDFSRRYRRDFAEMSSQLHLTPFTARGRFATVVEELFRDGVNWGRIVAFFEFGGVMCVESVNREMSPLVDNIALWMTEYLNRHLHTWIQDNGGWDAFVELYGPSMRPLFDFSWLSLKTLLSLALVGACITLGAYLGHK
Method in brief: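 In pH 7.4 buffer (Hepes 10 mM, NaCl 150 mM, Tween20 0.05%), test compounds at increasing concentrations competed with a fluorescein peptide (1.00×10^−8 M final) for histag-Bcl-2 (2.50×10^−8 M final). Readout was fluorescence polarisation after a 2 h incubation.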

[1] = tested on: RS4;11 leukaemia tumour line; experiment: In vitro cytotoxicity (Microculture Tetrazolium Assay); assay type: cell-based; settings: RS4;11 cells, exposed for 48 hours, cell viability, read-out: IC50 (nM) MTT RS4;11
Method: The cytotoxicity studies were carried out on the RS4;11 leukaemia tumour line.
The cells are distributed onto microplates and exposed to the test compounds for 48 hours.
The cell viability is then quantified by a colorimetric assay, the Microculture Tetrazolium Assay (Cancer Res., 1987, 47, 939-942).

Structure (SMILES)	IC50 (Bcl-2 protein)	IC50 ([1]; Homo sapiens, RS4-11, 48 h)	IC50 [1]	IC50 ([1]; hydrochloride)
Cc1c(C(=O)N(c2ccccc2)c2ccc(O)cc2)cc(-c2cc3c(cc2C(=O)N2Cc4ccccc4C[C@H]2CN2CCOCC2)OCO3)n1C [Example 15, N-(4-Hydroxyphenyl)-1,2-dimethyl-5-(6-{[(3S)-3-(morpholin-4-ylmethyl)-3,4-dihydroisoquinoin-2(1H)-yl]carbny}-1,3-benzodioxo-5-yl)-N-pheny-1H-pyrrole-3-carboxamide hydrochloride]	11.1 nM	–	69.4 nM	–
Cc1c(C(=O)N(c2ccc(O)cc2)c2cnn(C3CCOC3)c2)cc(-c2cc(F)ccc2C(=O)N2Cc3ccccc3C[C@H]2CN2CCOCC2)n1C (single isomer, unassigned) [Example 403, 5-(5-Fluoro-2-{[(3S)-3-(morpholin-4-ylmethyl)-3,4-dihydroisoquinolin-2(1H)-yl]carbonyl}phenyl)-N-(4-hydroxyphenyl)-1,2-dimethyl-N-{1-[(3R or S)-tetrahydrofuran-3-yl]-1H-pyrazol-4-yl}-1H-pyrrole-3-carboxamide hydrochloride]	24.2 nM	–	–	289 nM
Cc1c(N(C(=O)c2cc(-c3ccc(F)cc3C(=O)N3Cc4ccccc4C[C@H]3CN3CCOCC3)n(C)c2C)c2ccc(O)cc2)cc(C#N)n1C [Example 428, N-(5-Cyano-1,2-dimethyl-1H-pyrrol-3-yl)-5-(4-fluoro-2-{[(3S)-3-(morpholin-4-ylmethyl)-3,4-dihydroisoquinolin-2(1H)-yl]carbonyl}phenyl)-N-(4-hydroxyphenyl)-1,2-dimethyl-1H-pyrrole-3-carboxamide hydrochloride]	3.5 nM	59.2 nM	–	–
Cc1c(C(=O)N(c2ccc(O)cc2)c2cnn(C3COC3)c2)cc(-c2cc(Cl)ccc2C(=O)N2Cc3ccccc3C[C@H]2CN2CCOCC2)n1C [Example 126, 5-(5-Chloro-2-{[(3S)-3-(morpholin-4-ylmethyl)-3,4-dihydroisoquinolin-2(1H)-yl]carbonyl}phenyl)-N-(4-hydroxyphenyl)-1,2-dimethyl-N-[1-(oxetan-3-yl) 1H-pyrazol-4-yl]-1H-pyrrole-3-carboxamide]	4.2 nM	49.2 nM	–	–
COc1ccc(C(=O)N2Cc3ccccc3C[C@H]2CN2CCOCC2)c(-c2cc(C(=O)N(c3ccc(O)cc3)c3cc(C#N)n(C)c3C)c(C)n2C)c1 [Example 408, N-(5-Cyano-1,2-dimethyl-1H-pyrrol-3-yl)-N-(4-hydroxyphenyl)-5-(5-methoxy-2-{[(3S)-3-(morpholin-4-ylmethyl)-3,4-dihydroisoquinolin-2(1H)-yl]carbonyl}phenyl)-1,2-dimethyl-1H-pyrrole-3-carboxamide hydrochloride]	5.4 nM	4.46 nM	–	–
Cc1c(C(=O)N(c2ccncc2)c2ccc(O)cc2)cc(-c2cc(Cl)ccc2C(=O)N2Cc3ccccc3C[C@H]2CN2CCOCC2)n1C [Example 74, 5-(5-Chloro-2-{[(3S)-3-(morpholin-4-ylmethyl)-3,4-dihydroisoquinolin-2(1H)-yl]carbonyl}phenyl)-N-(4-hydroxyphenyl)-1,2-dimethyl-N-(pyridin-4-yl)-1H-pyrrole-3-carboxamide hydrochloride]	4 nM	45.4 nM	–	–
COc1cc(-c2cc(C(=O)N(c3ccc(O)cc3)c3cnn(C)c3)c(C)n2C)c(C(=O)N2Cc3ccccc3C[C@H]2CN2CCOCC2)cc1F [Example 101, 5-(4-Fluoro-5-methoxy-2-{[(3S)-3-(morpholin-4-ylmethyl)-3,4-dihydroisoquinolin-2(1H)-yl]carbonyl}phenyl)-N-(4-hydroxyphenyl)-1,2-dimethyl-N-(1-methyl-1H-pyrazol-4-yl)-1H-pyrrole-3-carboxamide hydrochloride]	21.1 nM	743 nM	–	–
Cc1c(C(=O)N(C)c2ccc(O)cc2)cc(-c2cc(CCNS(=O)(=O)CCc3ccc(F)cc3)ccc2C(=O)N2Cc3ccccc3C[C@H]2C)n1C [Example 55, 5-(5-[2-({[2-(4-Fluorophenyl)ethyl]sulphonyl}amino)ethyl]-2-{[(3R)-3-methyl-3,4-dihydroisoquinolin-2(1H)-yl]carbonyl}phenyl)-N-(4-hydroxyphenyl)-N,1,2-trimethyl-1H-pyrrole-3-carboxamide]	210 nM	> 600 nM	–	–

Further lines, with some results ahead:

IC50 (Bcl-2 protein)	Structure (SMILES)	IC50 ([1]; Homo sapiens, RS4-11, 48 h)	IC50 [1]	IC50 ([1]; hydrochloride)
2.5 nM	Cc1c(N(C(=O)c2cc(-c3cc(F)ccc3C(=O)N3Cc4ccccc4C[C@H]3CN3CCOCC3)n(C)c2C)c2ccc(O)cc2)cc(C#N)n1C [Example 421, N-(5-Cyano-1,2-dimethyl-1H-pyrrol-3-yl)-5-(5-fluoro-2-{[(3S)-3-(morpholin-4-ylmethyl)-3,4-dihydroisoquinolin-2(1H)-yl]carbonyl}phenyl)-N-(4-hydroxyphenyl)-1,2-dimethyl-1H-pyrrole-3-carboxamide hydrochloride]	3.73 nM	–	–
21.2 nM	Cc1c(C(=O)N(c2ccccc2)c2cnc3c(ccn3C)c2)cc(-c2cc(Cl)ccc2C(=O)N2Cc3ccccc3C[C@H]2CN2CCOCC2)n1C [Example 390, 5-(5-Chloro-2-{[(3S)-3-(morpholin-4-ylmethyl)-3,4-dihydroisoquinolin-2(1H)-yl]carbonyl}phenyl)-1,2-dimethyl-N-(1-methyl-1H-pyrrolo[2,3-b]pyridin-5-yl)-N-phenyl-1H-pyrrole-3-carboxamide]	173 nM	–	–
3.6 nM	Cc1c(C(=O)N(c2ccc(O)cc2)c2cnn(C)c2)cc(-c2cc3c(cc2C(=O)N2Cc4ccccc4C[C@H]2C)OCO3)n1CCO [Example 23, 1-(2-Hydroxyethyl)-N-(4-hydroxyphenyl)-2-methyl-5-(6-{[(3R)-3-methyl-3,4-dihydroisoquinolin-2(1H)-yl]carbonyl}-1,3-benzodioxol-5-yl)-N-(1-methyl-1H-pyrazol-4-yl)-1H-pyrrole-3-carboxamide]	25.4 nM	–	–
28.9 nM	CCNC(=O)NCc1ccc(C(=O)N2Cc3ccccc3C[C@H]2C)c(-c2cc(C(=O)N(C)c3ccc(O)cc3)c(C)n2C)c1 [Example 52, 5-(5-{[(Ethylcarbamoyl)amino]methyl}-2-{[(3R)-3-methyl-3,4-dihydroisoquinolin-2(1H)-yl]carbonyl}phenyl)-N-(4-hydroxyphenyl)-N,1,2-trimethyl-1H-pyrrole-3-carboxamide]	433 nM	–	–
3.8 nM	Cc1c(N(C(=O)c2cc(-c3cc(Cl)ccc3C(=O)N3Cc4ccccc4C[C@H]3CN3CCOCC3)n(C)c2)c2ccc(O)cc2)cc(C#N)n1C [Example 415, 5-(5-Chloro-2-{[(3S)-3-(morpholin-4-ylmethyl)-3,4-dihydroisoquinolin-2(1H)-yl]carbonyl}phenyl)-N-(5-cyano-1,2-dimethyl-1H-pyrrol-3-yl)-N-(4-hydroxyphenyl)-1-methyl-1H-pyrrole-3-carboxamide hydrochloride]	29.9 nM	–	–
8 nM	Cc1c(C(=O)N(c2ccc(O)cc2)c2ccc(F)c(C#N)c2)cc(-c2cc(Cl)ccc2C(=O)N2Cc3ccccc3C[C@H]2CN2CCOCC2)n1C [Example 401, 5-(5-Chloro-2-{[(3S)-3-(morpholin-4-ylmethyl)-3,4-dihydroisoquinolin-2(1H)-yl]carbonyl}phenyl)-N-(3-cyano-4-fluorophenyl)-N-(4-hydroxyphenyl)-1,2-dimethyl-1H-pyrrole-3-carboxamide hydrochloride]	24.3 nM	–	–
2.8 nM	Cc1c(C(=O)N(c2ccc(O)cc2)c2cccc(C#N)c2)cc(-c2cc(F)ccc2C(=O)N2Cc3ccccc3C[C@H]2CN2CCOCC2)n1C [Example 419, N-(3-Cyanophenyl)-5-(5-fluoro-2-{[(3S)-3-(morpholin-4-ylmethyl)-3,4-dihydroisoquinolin-2(1H)-yl]carbonyl}phenyl)-N-(4-hydroxyphenyl)-1,2-dimethyl-1H-pyrrole-3-carboxamide hydrochloride]	15.8 nM	–	–
19.7 nM	COCCn1c(-c2cc3c(cc2C(=O)N2Cc4ccccc4C[C@H]2CN2CCOCC2)OCO3)cc(C(=O)N(c2ccc(O)cc2)c2cnn(C)c2)c1C [Example 93, N-(4-Hydroxyphenyl)-1-(2-methoxyethyl)-2-methyl-N-(1-methyl-1H-pyrazol-4-yl)-5-(6-{[(3S)-3-(morpholin-4-ylmethyl)-3,4-dihydroisoquinolin-2(1H)-yl]carbonyl}-1,3-benzodioxol-5-yl)-1H-pyrrole-3-carboxamide hydrochloride]	368 nM	–	–
3.5 nM	Cc1c(C(=O)N(c2ccc(O)cc2)c2cnc3c(c2)CCN3C)cc(-c2cc(F)ccc2C(=O)N2Cc3ccccc3C[C@H]2CN2CCOCC2)n1C [Example 434, 5-(5-Fluoro-2-{[(3S)-3-(morpholin-4-ylmethyl)-3,4-dihydroisoquinolin-2(1H)-yl]carbonyl}phenyl)-N-(4-hydroxyphenyl)-1,2-dimethyl-N-(1-methyl-2,3-dihydro-1H-pyrrolo[2,3-b]pyridin-5-yl)-1H-pyrrole-3-carboxamide hydrochloride]	45.7 nM	–	–
4.4 nM	Cc1c(C(=O)N(c2ccc(O)cc2)c2ccc(F)c(C#N)c2)cc(-c2cc(F)ccc2C(=O)N2Cc3ccccc3C[C@H]2CN2CCOCC2)n1C [Example 437, N-(3-Cyano-4-fluorophenyl)-5-(5-fluoro-2-{[(3S)-3-(morpholin-4-ylmethyl)-3,4-dihydroisoquinolin-2(1H)-yl]carbonyl}phenyl)-N-(4-hydroxyphenyl)-1,2-dimethyl-1H-pyrrole-3-carboxamide hydrochloride]	70.5 nM	–	–
